Data: patent US20260200951A1, “NOVEL BORATE COMPOUND SOLUBLE IN ALIPHATIC HYDROCARBON SOLVENT” (AGC INC., priority 2023, published 2026)

What was measured:
[1] = Evaluation of solubility (visual appearance of stored solutions in aliphatic hydrocarbon solvents); format: physicochemical; settings: for solubility room temperature, 3 days: stored at room temperature for 3 days
Text: The symbols used to evaluate solubility in the Tables mean the following: • ◯: homogeneous transparent solution state • Δ: cloudy state • x: two-phase separation or crystallization

[2] = Evaluation of polymerization performance (ethylene/1-octene solution polymerization with CGC catalyst, compound as cocatalyst); settings: CGC 3 μmol, catalyst:cocatalyst=1:1, TIBA 3000 μmol, 40 ml solvent (MCH), 1-octene 1 mL, ethylene 8 atm, 50° C., 6 min
Description: A general polymerization method using the compound of the present invention (compound (1-2)) as a cocatalyst is shown below.
Into 100 mL autoclave in a glove box were added 1-octene, triisobutylaluminum (TIBA, 1.00 M hexane solution) and a solvent (methylcyclohexane (MCH)) to prepare a comonomer solution. A polymerization catalyst (dimethylsilylene(tert-butylamide)-(tetramethylcyclopentadienyl)-titanium (IV)-dichloride (CGC)), triisobutylaluminum (1.00 M hexane solution), and a solvent were added to prepare a catalyst solution at a predetermined concentration, and the solution was transferred to a Schlenk tube. Compound (1-2) (cocatalyst) was dissolved in a solvent, and a cocatalyst solution at a predetermined concentration was prepared and transferred to the Schlenk tube. The comonomer solution, the catalyst solution, and the cocatalyst solution were mixed, and prepared such that the total amount of the solvent and the total amount of triisobutylaluminum would be constant. The inside of the autoclave was purged with ethylene gas, the catalyst solution and the cocatalyst solution were successively added to the autoclave, and the ethylene gas pressure was immediately adjusted to a predetermined pressure, and the mixture was stirred at 50° C. for 6 min. […]

[3] = 0.6 wt % (≈3 mM) borate compound/n-hexane solution, visual observation
[4] = 50 wt % borate compound/methylcyclohexane solution, visual observation
[5] = 50 wt % borate compound/methylcyclohexane solution, stored at −15° C. for 3 days, visual observation

Compound | solubility room temperature, 3 days [1, 3] | solubility room temperature, 3 days [1, 4] | solubility −15° C., 3 days [1, 5] | solubility at 3 days ([1]; organic solvent or mixture, 0.6 wt % (≈3 mM) borate compound/n-hexane solution, stored at −15° C. for 3 days, visual observation) [µM] | ethylene-octene copolymer obtained [2] [mg] | solubility −15° C., 3 days ([1]; 0.6 wt % (≈3 mM) borate compound/n-hexane solution, stored at −15° C. for 3 days, visual observation) | solubility in aliphatic hydrocarbon solvents at low temperatures, in words ([1]; compared to Comparative Examples 1 to 5, summary of Tables 1 and 2)
CCCCCCCCCCCCCCCCN(CCCCCCCCCCCCCCCC)c1ccccc1 [Comparative Example 1, N,N-Dihexadecylanilinium tetrakis(pentafluorophenyl) borate] | ∘ | ∘ | ∘ | < 3000 |  |  | 
CCCCCCCCCCCCCCCCCC[NH+](CCCCCCCCCCCCCCCCCC)c1ccc(CCCC)cc1.Fc1c(F)c(F)c([B-](c2c(F)c(F)c(F)c(F)c2F)(c2c(F)c(F)c(F)c(F)c2F)c2c(F)c(F)c(F)c(F)c2F)c(F)c1F [Example 2, N,N-Dioctadecyl-4-butylanilinium tetrakis(pentafluorophenyl) borate] | ∘ | ∘ | ∘ |  | 47.3 | ∘ | remarkably high solubility
